Measured values taken from US20140329854A1, “NOVEL HETEROCYCLIC COMPOUNDS USEFUL IN SIRTUIN BINDING AND MODULATION” (SMB Innovation, priority 2011, published 2014).
Like-named read-outs stand apart in the source and are kept apart here.

Experiments:
SIRT1 = biological target: T1, SIRT1 (Homo sapiens, UniProt Q96EB6); assay: CISBIO HTRF SIRT1 assay of SIRT1 peptide deacetylation, modified by excluding NAD+; format: biochemical; details: for Modulation of SIRT1 deacetylating activity (in words): dose response, FIGS. 1-5
T1 construct: purchased Cisbio Bioassays
T1 sequence (Q96EB6 1-747): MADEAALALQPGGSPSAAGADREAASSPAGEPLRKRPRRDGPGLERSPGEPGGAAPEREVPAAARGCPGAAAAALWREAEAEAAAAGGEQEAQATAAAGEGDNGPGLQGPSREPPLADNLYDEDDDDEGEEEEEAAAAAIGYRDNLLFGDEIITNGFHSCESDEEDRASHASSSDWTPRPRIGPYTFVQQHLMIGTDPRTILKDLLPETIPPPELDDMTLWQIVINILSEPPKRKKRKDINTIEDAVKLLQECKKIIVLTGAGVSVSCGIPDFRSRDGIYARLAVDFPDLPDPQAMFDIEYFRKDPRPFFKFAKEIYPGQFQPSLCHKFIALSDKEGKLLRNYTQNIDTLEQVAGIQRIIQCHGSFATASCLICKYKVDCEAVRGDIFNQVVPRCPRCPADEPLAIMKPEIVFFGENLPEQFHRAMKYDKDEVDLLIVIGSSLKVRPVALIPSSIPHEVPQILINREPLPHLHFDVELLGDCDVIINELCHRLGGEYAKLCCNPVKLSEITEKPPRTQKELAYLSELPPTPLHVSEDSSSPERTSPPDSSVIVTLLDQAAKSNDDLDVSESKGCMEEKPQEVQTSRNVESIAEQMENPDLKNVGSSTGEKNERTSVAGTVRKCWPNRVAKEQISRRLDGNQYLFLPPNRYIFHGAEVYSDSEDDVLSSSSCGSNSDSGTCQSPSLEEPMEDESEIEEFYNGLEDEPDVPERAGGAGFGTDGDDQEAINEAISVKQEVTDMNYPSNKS
Protocol: Generally, the CISBIO HTRF® fluorescence enzyme titration assay (Cisbio Bioassays, Cisbio, 135 South Road, Bedford, Mass. 01730, USA) has provided information on inhibition and/or activation of SIRT1 deacetylation of a substrate peptide d2 containing a single acetylated lysine residue and a fluorescence probe/quencher. IC50 and AC50 values have been obtained. The assay was performed in microtiter wells and involved an enzymatic step, wherein 2 μL of the substrate peptide (6 nM) is incubated with 2 μL of SIRT1 enzyme (2.5 ng) and 2 μL of compound solution in DMSO and water. Reaction with anti-acetyl cryptate produces a FRET signal giving maximum signal when no SIRT1 reaction can be detected. The detection step involves quantification of the deacetylation process using an anti-acetyl MAb labeled with Eu^3+ cryptate. The assay was modified by excluding the NAD+ cofactor and using nicotinamide as inhibition control and the compound SRT1720 as activation control. SRT 1720 is described as a SIRT1 activating compound in Pillarisetti, S. (2008).
Protocol for inhibition/activation assay:
After adding all enzymatic step ingredients the mixture is incubated at room temperature at 30 to 60 min. Then the detection reactant is added and incubated at room temperature for 5 hours and on to produce a signal. The fluorescence readout is given as percentage of signal produced with no enzyme reaction.
The cryptate is excited at 337 nm and the fluorescence is measured at 590 nm (cryptate emission wavelength) and 665 nm (d2 emission wavelength). A ratio is calculated (665/590 nm) for each well.
The figures show percentage fluorescence as a function of Log C (log of compound concentration in μM).

[1] = Solubility in DMSO stock solution; details: solubility in DMSO before further dilution with water to 1% DMSO
rat hepatocytes = assay: Metabolic stability in rat hepatocytes; format: in vitro ADME; details: for % Qh (rat): CLh as % of hepatic blood flow; for % Qh (rat) / rat CLh: rat Qh = 55 mL/min/kg; for rat CLh: hepatic clearance from CLint by well-stirred equation; for rat CLint: rat hepatocytes, hepatic intrinsic clearance
Protocol: (§1) Stability of the six compounds in the presence of a drug metabolizing system such as human and rat hepatocytes was measured. Data were reported from the CRO in the format of hepatic intrinsic clearance (CLint) in mL/min/kg. These CLint data were converted using the well-stirred equation
(§2) to a whole body clearance (CLh, hepatic clearance), which is more directly physiologically interpreted (Qh, hepatic blood flow rate, mL/min/kg).

human hepatocytes = assay: Metabolic stability in human hepatocytes; format: in vitro ADME; details: for % Qh (human): CLh as % of hepatic blood flow; for % Qh (human) / hu CLh: human Qh = 21 mL/min/kg; for hu CLh: hepatic clearance from CLint by well-stirred equation; for hu CLint: human hepatocytes, hepatic intrinsic clearance
Protocol: as §1, §2

[2] = Measured partition coefficients (MlogD7.4, logP11); format: physicochemical; details: measured partition coefficient at pH 7.4
Protocol: Physical properties tPSA and ClogP (calculated lipophilicity octanol/water) were calculated using ChemDraw. Additionally, M log D7.4 (measured partition coefficient at pH 7.4) and log P11 (measured partition coefficient at pH 11) were measured, and all data are shown in Table 7.

[3] = test system: human and rat hepatocytes; assay: Stability in cryopreserved hepatocytes (FIG. 7), verbal summary; format: in vitro ADME; details: 90 minutes
Protocol: as §1

MDCK-MDR1 cells = test system: MDCK-MDR1 cells
From the text: MDR1 is the nomenclature for the major efflux transporter P-glycoprotein (P-gp), which is expressed at important anatomical barriers such as blood-brain, small intestine, and tumor cells. The MDCK-MDR model is a polarized cell model over expressing P-gp (i.e. P-gp is expressed on the Apical, or gut lumen, side of the cell) that is capable of actively effluxing small molecule substrates in the B to A direction. […] The compounds were run bidirectionally (Compound added to apical side and flux measured of compound appearing on the basolateral, or blood, side; compound added on basolateral side and flux of compound to apical side measured).

[4] = test system: CYP1A2, 2C9, 2C19, 2D6, and 3A4; details: microsomes
[5] = test system: CYP1A2, CYP2C9, CYP2C19, CYP2D6, CYP3A4; assay: CYP inhibition in human liver microsomes
[6] = SIRT1 activation, no NAD+ cofactor, average n = 3, read-out: AC50 in μM, average, n = 3
[7] = SIRT1 activation, no NAD+ cofactor, single experiment of FIGS. 1-4, read-out: AC50 in μM, n = 1
[8] = average AC50 values, n = 6, read-out: AC50

For `NC(=O)c1ccc(C(=O)Nc2ccccc2O)nc1` [Compound 2, 2-N(2-hydroxyphenyl)pyridine-2,5-dicarboxamide], the AC50 (SIRT1; [6]) was 348 µM, the AC50 (SIRT1; [7]) was 316 µM and the “Modulation of SIRT1 deacetylating activity (in words)” value (“Modulation” below) (SIRT1) was “clear activation”. The “Concentration of compound in DMSO stock solution” value (“Concentration of compound” below) [1] was 200000 µM.

With `NC(=O)c1ccc(C(=O)Nc2ccc(O)c3ccccc23)nc1` [Compound 4, 2-N(4-hydroxy-1-naphthyl)pyridine-2,5-dicarboxamide] the “Concentration of compound” value [1] was 20000 µM.

For `NC(=O)c1ccc(C(=O)Nc2cccc3c(O)cccc23)nc1` [Compound 5, 2-N(5-hydroxy-1-naphthyl)pyridine-2,5-dicarboxamide], the “Concentration of compound” value [1] was 20000 µM.

In the case of `NC(=O)c1ccc(C(=O)Nc2cccc3cc(O)ccc23)nc1` [Compound 6, 2-N(6-hydroxy-1-naphthyl)pyridine-2,5-dicarboxamide], the “Concentration of compound” value [1] is reported as 100000 µM.

For `CCOc1ccc2ccc(=O)oc2c1` [Compound 7EC, reference compound], the “% Qh (rat)” value (rat hepatocytes) was 66.0%, the “rat CLh” value (rat hepatocytes) was 36.3 mL/min/kg and the “rat CLint” value (rat hepatocytes) was 107 mL/min/kg. The “% Qh (human)” value (human hepatocytes) was 82.5%, the “hu CLh” value (human hepatocytes) was 17.3 mL/min/kg and the “hu CLint” value (human hepatocytes) was 99 mL/min/kg.

With `NC(=O)c1ccc(C(=O)Nc2ccc(O)cc2O)cn1` [Compound 9, 5-N(2,4-dihydroxyphenyl)pyridine-2,5-dicarboxamide] the AC50 (SIRT1; [7]) was 112 µM, the “Modulation” value (SIRT1) was “clear activation” and the MlogD7.4 [2] was 0.3. The “% Qh (rat)” value (rat hepatocytes) was 21.4%, the “rat CLh” value (rat hepatocytes) was 11.8 mL/min/kg and the “rat CLint” value (rat hepatocytes) was 15 mL/min/kg. The “% Qh (human)” value (human hepatocytes) was 36.4%, the “hu CLh” value (human hepatocytes) was 7.6 mL/min/kg and the “hu CLint” value (human hepatocytes) was 12 mL/min/kg. For the same compound, the “Clearance in hepatocytes (in words)” value [3] was “relatively low clearance”, the “Stability in hepatocytes (in words)” value [3] was “good stability” and the “Cell permeability (in words)” value (MDCK-MDR1 cells) was “moderate cell permeability”. For the same compound, the “P-gp mediated efflux (in words)” value (MDCK-MDR1 cells) was “no P-gp mediated efflux”, the IC50 [4] was > 5 µM and the “Concentration of compound” value [1] was 200000 µM.

With `NC(=O)c1ccc(C(=O)Nc2cccc3c(O)cccc23)cn1` [Compound 10, 5-N(5-hydroxy-1-naphthyl)pyridine-2,5-dicarboxamide] the “Concentration of compound” value [1] was 20000 µM.

With `NC(=O)c1ccc(C(=O)Nc2cccc3cc(O)ccc23)cn1` [Compound 12, 5-N(6-hydroxy-1-naphthyl)pyridine-2,5-dicarboxamide] the “Concentration of compound” value [1] was 20000 µM.

For `NC(=O)c1cccc(C(=O)Nc2ccc(O)cc2O)n1` [Compound 13, 2-N(2,4-dihydroxyphenyl)pyridine-2,6-dicarboxamide], the AC50 (SIRT1; [6]) was 647 µM, the AC50 (SIRT1; [7]) was 105 µM and the “Modulation” value (SIRT1) was “clear activation”. The “Concentration of compound” value [1] was 20000 µM.

With `NC(=O)c1ccc2cc(C(=O)Nc3ccc(O)cc3)ccc2n1` [Compound 14, 6-N(4-hydroxyphenyl)quinolin-2,6-dicarboxamide] the “Concentration of compound” value [1] was 200000 µM.

With `NC(=O)c1ccc2cc(C(=O)Nc3ccccc3O)ccc2n1` [Compound 15, 6-N(2-hydroxyphenyl)quinolin-2,6-dicarboxamide] the “Concentration of compound” value [1] was 10000 µM.

With `NC(=O)c1cc(C(=O)Nc2ccc(O)cc2)c[nH]1` [Compound 16, 4-N(4-hydroxyphenyl)pyrrol-2,4-dicarboxamide] the “Concentration of compound” value [1] was 200000 µM.

In the case of `NC(=O)c1cc(C(=O)Nc2ccccc2O)c[nH]1` [Compound 17, 4-N(2-hydroxyphenyl)pyrrol-2,4-dicarboxamide], the IC50 (SIRT1; SIRT1 inhibition, no NAD+ cofactor, n = 1, FIG. 5) is reported as 0.5 µM, the “Modulation” value (SIRT1) is reported as “clear inhibition” and the “Concentration of compound” value [1] is reported as 200000 µM.

`NC(=O)c1ccc(C(=O)Nc2cc3ccccc3cc2O)nc1` [Compound 18, 2-N(3-hydroxy-2-naphthyl)pyridine-2,5-dicarboxamide] showed an AC50 (SIRT1; [8]) of 116 µM.

In the case of `NC(=O)c1ccc(C(=O)Nc2ccc3ccccc3c2O)nc1` [Compound 19, 2-N(1-hydroxy-2-naphthyl)pyridine-2,5-dicarboxamide], the AC50 (SIRT1; [8]) is reported as 31.6 µM and the IC50 [5] is reported as > 5 µM.

With `NC(=O)c1ccc(C(=O)Nc2cc(Cl)ccc2O)nc1` [Compound 23, 2-N(2-hydroxy-5-chloro-phenyl)pyridine-2,5-dicarboxamide] the AC50 (SIRT1; [8]) was > 200 µM.

For `COc1cccc(NC(=O)c2ccc(C(N)=O)cn2)c1O` [Compound 24, 2-N(2-hydroxy-3-methoxy-phenyl)pyridine-2,5-dicarboxamide], the IC50 [4] was > 5 µM.

`COc1cc2ccccc2c(NC(=O)c2ccc(C(N)=O)cn2)c1O` [Compound 28, 2-N(2-hydroxy-3-methoxy-1-naphthyl)pyridine-2,5-dicarboxamide] showed an AC50 (SIRT1; [8]) of 175 µM.

For `NC(=O)c1ccc(C(=O)Nc2c(O)ccc3cc(Cl)ccc23)nc1` [Compound 29, 2-N(2-hydroxy-6-chloro-1-naphthyl)pyridine-2,5-dicarboxamide], the AC50 (SIRT1; [8]) was 113 µM and the IC50 [5] was > 5 µM.
